For 66 compounds, IC50 results are on record in ChEMBL document CHEMBL4742390, “Derivatives of quinolines as inhibitors of dyrk1a and/or dyrk1b kinases” (2019).

Assay [1] has as its target Dual specificity tyrosine-phosphorylation-regulated kinase 1B (Homo sapiens, UniProt Q9Y463). The experiment in a line: Inhibition of N-terminal GST tagged human DYRK1B expressed in Sf21 cells incubated for 60 mins by ADP-Glo assay.
Assay [2] deals with Dual specificity tyrosine-phosphorylation-regulated kinase 1A (Homo sapiens, UniProt Q13627). The experiment in a line: Inhibition of N-terminal GST tagged human DYRK1A expressed in Sf21 cells incubated for 30 mins by ADP-Glo assay.

Sequence of Dual specificity tyrosine-phosphorylation-regulated kinase 1B (Q9Y463 whole entry): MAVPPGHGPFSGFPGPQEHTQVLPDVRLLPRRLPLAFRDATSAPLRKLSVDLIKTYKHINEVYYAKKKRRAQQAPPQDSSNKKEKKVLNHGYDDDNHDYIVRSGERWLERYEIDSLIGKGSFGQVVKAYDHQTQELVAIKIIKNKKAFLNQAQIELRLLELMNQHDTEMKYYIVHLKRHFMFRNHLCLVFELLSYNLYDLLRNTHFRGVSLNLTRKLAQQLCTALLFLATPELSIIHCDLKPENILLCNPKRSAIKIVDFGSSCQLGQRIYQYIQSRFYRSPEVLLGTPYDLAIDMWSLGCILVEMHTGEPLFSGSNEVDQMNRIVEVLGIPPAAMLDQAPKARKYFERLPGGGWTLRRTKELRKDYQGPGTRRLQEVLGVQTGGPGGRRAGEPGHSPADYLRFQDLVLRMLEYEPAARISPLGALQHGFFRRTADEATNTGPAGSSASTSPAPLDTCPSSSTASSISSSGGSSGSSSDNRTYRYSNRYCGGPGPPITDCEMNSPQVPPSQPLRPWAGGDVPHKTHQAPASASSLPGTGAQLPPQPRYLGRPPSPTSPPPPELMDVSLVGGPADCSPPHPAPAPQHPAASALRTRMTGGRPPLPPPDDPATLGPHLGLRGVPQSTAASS

For the compound `O=C(NCc1ccccc1)c1cnc2[nH]cc(-c3cc(F)c4nccc(-c5cccnc5)c4c3)c2c1`, the results for the IC50 in assay [1] (sf21) and in assay [2] were 10 nM and less than 10 nM, respectively. As for `CNC(=O)c1cnc2[nH]cc(-c3cc(F)c4nccc(N5CCC[C@@H](N)C5)c4c3)c2c1`, the half-inhibitory concentration (IC50) in assay [1] and in assay [2] was less than 10 nM throughout. For the compound `FC(F)(F)Oc1cc(-c2c[nH]c3ncccc23)cc2cccnc12`, the values for the IC50 in assay [1] and in assay [2] (sf21) were not below 100 nM and 10 nM, respectively.

For the compound `N[C@@H]1CCCN(c2ccnc3c(F)cc(-c4c[nH]c5ncc(C(=O)NCc6cncnc6)cc45)cc23)C1`, the 50% inhibitory concentration (IC50) in assay [1] and in assay [2] was less than 10 nM each time. Take `CNC(=O)c1cnc2[nH]cc(-c3cc(F)c4nccc(N5CCC[C@H](N)C5)c4c3)c2c1`: the IC50 in assay [1] and in assay [2] was less than 10 nM each time. In the case of `Clc1cc(-c2c[nH]c3ncccc23)cc2cccnc12`, the IC50 in assay [1] and in assay [2] was less than 10 nM in each case. With `C=CCN(C)C(=O)c1cnc2[nH]cc(-c3cc(F)c4ncccc4c3)c2c1`, the IC50 in assay [1] and in assay [2] was less than 10 nM throughout.

For `CC(=O)Nc1cnc2ccc(-c3c[nH]c4ncc(C(=O)NCc5cccnc5)cc34)cc2c1`, the 50% inhibitory concentration (IC50) in assay [1] and in assay [2] was less than 10 nM in each case. Regarding `C=CCN(C)C(=O)c1cnc2[nH]cc(-c3cc(OC)c4ncccc4c3)c2c1`, the 50% inhibitory concentration (IC50) in assay [1] and in assay [2] was not below 100 nM each time. For `O=C(NCc1ccccc1)c1cnc2[nH]cc(-c3cc(Cl)c4ncccc4c3)c2c1`, the IC50 in assay [1] (sf21) was 10 nM; in assay [2], less than 10 nM. On to `NCCCNC(=O)c1cnc2[nH]cc(-c3cc(Cl)c4ncccc4c3)c2c1`, for which the IC50 in assay [1] and in assay [2] was less than 10 nM each time. `COc1cc(-c2c[nH]c3ncc(C(N)=O)cc23)cc2c(-c3cccnc3)ccnc12`: the IC50 was not below 100 nM in assay [1] and 10 nM in assay [2] (sf21).

Take `C=CCCCc1ccnc2ccc(-c3c[nH]c4ncc(CN(C)CC=C)cc34)cc12`: the IC50 in assay [1] (sf21) is 10 nM; in assay [2], less than 10 nM. In the case of `CNC(=O)c1cnc2[nH]cc(-c3ccc4ncc(NC(C)=O)c(N5CCOCC5)c4c3)c2c1`, the IC50 in assay [1] and in assay [2] was less than 10 nM in each case.

As to `CNC(=O)c1cnc2[nH]cc(-c3cc(F)c4nccc(-c5cnccc5C)c4c3)c2c1`, the IC50 in assay [1] and in assay [2] was less than 10 nM each time. As for `Nc1cnc2ccc(-c3c[nH]c4ncc(C(=O)NCc5cccnc5)cc34)cc2c1`, the IC50 in assay [1] and in assay [2] was less than 10 nM each time. As to `C=CC1CN2CCC1CC2[C@H](O)c1ccnc2ccc(-c3c[nH]c4ncccc34)cc12` (some centres not stated), the IC50 in assay [1] and in assay [2] was less than 10 nM in each case. The compound `N[C@H]1CCN(c2ccnc3ccc(-c4c[nH]c5ncccc45)cc23)C1` registered a half-maximal inhibitory concentration (IC50) in assay [1] of less than 10 nM. `CNC(=O)c1cnc2[nH]cc(-c3ccc4ncc(NCc5cccc(Cl)c5)c(N5CCOCC5)c4c3)c2c1`: the IC50 in assay [1] (sf21) is 10 nM; in assay [2], less than 10 nM. Consider `CC(=O)Nc1cnc2[nH]cc(-c3cc(F)c4nccc(-c5cccnc5)c4c3)c2c1`, for which the IC50 in assay [1] and in assay [2] was less than 10 nM each time.

For `C=CCN(C)Cc1cnc2[nH]cc(-c3cc(F)c4nccc(-c5cccnc5)c4c3)c2c1`, the IC50 is 10 nM in assay [1] (sf21) and less than 10 nM in assay [2]. On to `CNC(=O)c1cnc2[nH]cc(-c3ccc4ncc(N)c(N5CCC[C@H](N)C5)c4c3)c2c1`, for which the IC50 in assay [1] and in assay [2] was less than 10 nM throughout. Turning to `c1cnc2[nH]cc(-c3ccc4nccc(-c5ccncc5)c4c3)c2c1`, the IC50 in assay [1] and in assay [2] was less than 10 nM throughout. In assay [1] (sf21), `CN1CCC(Nc2ccnc3ccc(-c4c[nH]c5ncccc45)cc23)CC1` returned an IC50 of 10 nM. `c1ccc(-c2ccnc3ccc(-c4c[nH]c5ncccc45)cc23)cc1`: the IC50 in assay [1] and in assay [2] was less than 10 nM in each case. `CNC(=O)c1cnc2[nH]cc(-c3cc(OC)c4ncccc4c3)c2c1` yielded a 50% inhibitory concentration (IC50) in assay [1] not below 100 nM.

Take `CC(=O)N1CCC(Nc2c(N)cnc3ccc(-c4c[nH]c5ncccc45)cc23)CC1`: the IC50 in assay [1] and in assay [2] was less than 10 nM in each case.

With `CNC(=O)c1cnc2[nH]cc(-c3cc(F)c4nccc(CCc5ccccc5)c4c3)c2c1`, the IC50 in assay [1] and in assay [2] was less than 10 nM throughout.

Regarding `N[C@@H]1CCCN(c2ccnc3c(F)cc(-c4c[nH]c5ncc(C(=O)NCc6cccnc6)cc45)cc23)C1`, the IC50 in assay [1] and in assay [2] was less than 10 nM throughout. `CNC(=O)c1cnc2[nH]cc(-c3cc(C)c4nccc(-c5cccnc5)c4c3)c2c1` showed an IC50 in assay [1] not below 100 nM. For `Fc1cc(-c2c[nH]c3ncc(CNCc4ccccc4)cc23)cc2c(-c3cccnc3)ccnc12`, the IC50 in assay [1] and in assay [2] was less than 10 nM in each case. Turning to `CNC(=O)c1cnc2[nH]cc(-c3cc(F)c4ncccc4c3)c2c1`, the IC50 in assay [1] and in assay [2] was less than 10 nM throughout.

On to `C=CCN(C)C(=O)c1cnc2[nH]cc(-c3cc(F)c4nccc(-c5cccnc5)c4c3)c2c1`, for which the IC50 in assay [1] (sf21) was 10 nM; in assay [2] it was less than 10 nM. As to `C=CCN(C)C(=O)c1cnc2[nH]cc(-c3cc(Cl)c4ncccc4c3)c2c1`, the figures for the IC50 in assay [1] (sf21) and in assay [2] were 10 nM and less than 10 nM, respectively.

On to `C=CCN(C)C(=O)c1cnc2[nH]cc(-c3ccc4nccc(Cl)c4c3)c2c1`, for which the IC50 was 10 nM in assay [1] (sf21) and less than 10 nM in assay [2].

On to `c1cnc2[nH]cc(-c3ccc4ncc(NCc5ccoc5)cc4c3)c2c1`, for which the IC50 in assay [1] and in assay [2] was less than 10 nM throughout. `CNC(=O)c1cnc2[nH]cc(-c3ccc4ncccc4c3)c2c1`: the IC50 in assay [1] and in assay [2] was less than 10 nM in each case. `CNC(=O)c1cnc2[nH]cc(-c3ccc4nccc(Cl)c4c3)c2c1`: the IC50 in assay [1] and in assay [2] was less than 10 nM in each case. In assay [1] (sf21), `Clc1ccnc2ccc(-c3c[nH]c4ncccc34)cc12` yielded a half-maximal inhibitory concentration (IC50) of 10 nM. `N[C@H]1CC[C@H](Nc2c(NCC3CCOCC3)cnc3ccc(-c4c[nH]c5ncc(C(=O)NCc6cccnc6)cc45)cc23)CC1`: the IC50 in assay [1] (sf21) is 10 nM; in assay [2] it was less than 10 nM.

Regarding `CNC(=O)c1cnc2[nH]cc(-c3ccc4ncc(NCC5CCOCC5)c(N5CCOCC5)c4c3)c2c1`, the concentration for half-maximal inhibition (IC50) in assay [1] (sf21) was 10 nM; in assay [2], less than 10 nM. As for `Fc1cc(-c2c[nH]c3ncccc23)cc2cccnc12`, the IC50 in assay [1] and in assay [2] was less than 10 nM throughout. Take `CNC(=O)c1cnc2[nH]cc(-c3ccc4nccc(-c5cccnc5)c4c3)c2c1`: the concentration for half-maximal inhibition (IC50) in assay [1] and in assay [2] was less than 10 nM throughout. As for `NC(=O)c1cnc2[nH]cc(-c3cc(F)c4ncccc4c3)c2c1`, the 50% inhibitory concentration (IC50) in assay [1] and in assay [2] was less than 10 nM throughout.

In assay [1] (sf21), `CN1CCC(Nc2c(C#N)cnc3ccc(-c4c[nH]c5ncccc45)cc23)CC1` gave an IC50 of 10 nM. For `N[C@H]1CC[C@H](Nc2c([N+](=O)[O-])cnc3ccc(-c4c[nH]c5ncc(C(=O)NCc6cccnc6)cc45)cc23)CC1`, the 50% inhibitory concentration (IC50) in assay [1] (sf21) and in assay [2] (sf21) was 10 nM in each case. Take `NCCCNC(=O)c1cnc2[nH]cc(-c3cc(F)c4nccc(-c5cccnc5)c4c3)c2c1`: the IC50 in assay [1] and in assay [2] was less than 10 nM in each case.

In assay [1], `COc1cc(-c2c[nH]c3ncccc23)cc2cccnc12` yielded a half-inhibitory concentration (IC50) not below 100 nM. On the same count and under the same terms, with `N[C@H]1CC[C@H](Nc2ccnc3ccc(-c4c[nH]c5ncccc45)cc23)CC1` the figure was not below 100 nM. For `CNC(=O)c1cnc2[nH]cc(-c3ccc4nccc(N5CCOCC5)c4c3)c2c1`, the IC50 in assay [1] and in assay [2] was less than 10 nM throughout. As to `CNC(=O)c1cnc2[nH]cc(-c3ccc4ncc(NCc5cccc(Cl)c5)c(N5CCC[C@H](N)C5)c4c3)c2c1`, the IC50 in assay [1] (sf21) was 10 nM; in assay [2], less than 10 nM. In the case of `O=C(NCc1cccnc1)c1cnc2[nH]cc(-c3cc(F)c4nccc(-c5cccnc5)c4c3)c2c1`, the IC50 in assay [1] and in assay [2] was less than 10 nM throughout. As to `N[C@H]1CCCN(c2ccnc3ccc(-c4c[nH]c5ncccc45)cc23)C1`, the IC50 in assay [1] and in assay [2] was less than 10 nM throughout. As to `c1cncc(-c2ccnc3ccc(-c4c[nH]c5ncccc45)cc23)c1`, the IC50 in assay [1] and in assay [2] was less than 10 nM in each case. Turning to `NCCCNC(=O)c1cnc2[nH]cc(-c3cc(F)c4ncccc4c3)c2c1`, the concentration for half-maximal inhibition (IC50) in assay [1] and in assay [2] was less than 10 nM each time. As to `O=C(NCc1cccnc1)c1cnc2[nH]cc(-c3ccc4ncc(NCC5CCOCC5)cc4c3)c2c1`, the IC50 in assay [1] and in assay [2] was less than 10 nM in each case. Turning to `O=C(NCc1ccccc1)c1cnc2[nH]cc(-c3cc(F)c4ncccc4c3)c2c1`, the IC50 in assay [1] and in assay [2] was less than 10 nM throughout. For `CN1CCC(N(C)c2c([N+](=O)[O-])cnc3ccc(-c4c[nH]c5ncccc45)cc23)CC1`, the IC50 in assay [1] (sf21) and in assay [2] (sf21) was 10 nM in each case. In assay [1] (sf21), `Cc1cc(-c2c[nH]c3ncccc23)cc2c(-c3cccnc3)ccnc12` displayed a half-inhibitory concentration (IC50) of 10 nM. In assay [1], `Cc1cc(-c2c[nH]c3ncccc23)cc2cccnc12` showed a half-inhibitory concentration (IC50) not below 100 nM. Regarding `Fc1cc(-c2c[nH]c3ncccc23)cc2c(-c3cccnc3)ccnc12`, the IC50 in assay [1] and in assay [2] was less than 10 nM in each case. In the case of `N[C@@H]1CCCN(c2ccnc3c(F)cc(-c4c[nH]c5ncc(CNCc6ccccc6)cc45)cc23)C1`, the IC50 in assay [1] and in assay [2] was less than 10 nM each time.

As to `c1cnc2ccc(-c3c[nH]c4ncccc34)cc2c1`, the IC50 in assay [1] and in assay [2] was less than 10 nM throughout.

Consider `CNC(=O)c1cnc2[nH]cc(-c3ccc4ncc([N+](=O)[O-])c(N5CCC[C@H](N)C5)c4c3)c2c1`, for which the IC50 was 10 nM in assay [1] (sf21) and less than 10 nM in assay [2].

As for `CNC(=O)c1cnc2[nH]cc(-c3cc(F)c4nccc(-c5cccnc5)c4c3)c2c1`, the IC50 in assay [1] and in assay [2] was less than 10 nM throughout. Take `Cc1cc(-c2c[nH]c3ncccc23)cc2c(-c3ccccc3)ccnc12`: the IC50 in assay [1] and in assay [2] was not below 100 nM each time.
